Measured values as given in a melting point compilation (Tetko et al.; mined from patent text by program, amines drawn as free bases though some values may be those of a salt).

melting point | SMILES
203 to 204 °C | COc1cc(O)c2c(=O)c(OC)c(-c3ccc(OC4OC(CO)C(O)C(O)C4O)c(OC)c3)oc2c1 (centres undefined)
125 to 126 °C | COc1cccc(CC(=O)O)c1OCCCc1cn(-c2ccc(F)cn2)nc1C(C)C
127 to 130 °C | Cc1cccc(C2CCN(C(=O)Oc3ccccc3)CC2)c1
152 to 154 °C | O=C(NCc1cccs1)c1cc2ccnc(N(Cc3ccccc3)Cc3ccccc3)c2[nH]1
153 to 154 °C | COc1ccccc1N1CCN(C(=O)Nc2cc(C(C)=O)c(C)nc2OC)CC1
161 °C | Cc1ccc2c(c1)c1cc(-c3ccc(Cl)cc3Cl)c(=O)n(C)c1n2CCOC1CCCCO1 (centres undefined)
95 to 96 °C | CCCN(CCC)C(=O)COc1nc(-c2ccc(F)cc2)nc2c1CCCC2
257 to 259 °C | O=C(Cc1c(-c2ccccc2)c2cc3c(cc2oc1=O)CCC3)Nc1c(Cl)cncc1Cl
121 to 123 °C | C=C(c1ccc(OC)c(OC2CCCC2)c1)c1n[nH]cc1CO
148 to 150 °C | CCCCN(Cc1ccc(-c2ccccc2-c2nnn[nH]2)cc1)c1nc(C)cc(C)n1
174 to 175 °C | COc1ccc(-c2[nH]nc3c2C(=O)c2c(NC(C)=O)cccc2-3)cc1
78 to 82 °C | CCc1c2n(c3ccccc13)C(=O)C(Cc1ncn(C(c3ccccc3)(c3ccccc3)c3ccccc3)c1C)CC2 (centres undefined)
85 to 86 °C | CC(C)c1ccc(C2c3cc(NCc4ccccc4)ccc3OC2(C)C)cc1 (centres undefined)
120 to 122 °C | COc1cccc(NC(=O)NCC2(c3ccccc3)CCCCC2)c1
191 to 192 °C | CC(C)(C)C(NC(=O)Cc1ccc2c(c1)OCCO2)NC(=NC#N)Nc1cccc2ncccc12 (centres undefined)
199 to 200 °C | O=C(NCc1ccncc1)c1cc2ccnc(NCc3ccccc3)c2[nH]1
157 to 158 °C | CC=CC(=O)NCCc1ccc(S(=O)(=O)N2CCN(C3CCCCC3)C2=N)cc1
152 to 155 °C | COc1ccc(CNc2nc(NCCCc3cccc(C(C)=O)c3)nc3ncccc23)cc1OC
178 to 179 °C | O=C(CCCc1ccccc1)NCc1ccc(C(=O)O)cc1
65 to 70 °C | CCOCCn1c(C(=O)C2CCN(CCC3(c4ccccc4)CCN(C(=O)c4cc(OC)c(OC)c(OC)c4)C3)CC2)nc2ccccc21 (centres undefined)

melting point | SMILES
115 to 117 °C | Nc1cccc(Cn2c(-c3ccccc3Cl)cc3ccc(Oc4cncnc4)cc32)n1
115 °C | CN(Cc1cccc(-c2ccc(CC3SC(=O)NC3=O)cc2)c1)C(=O)c1cccnc1 (centres undefined)
94 to 95 °C | COCCOc1ccc(CCCNS(=O)(=O)c2ccccc2)c(Oc2ncc(C(F)(F)F)cc2Cl)c1
140 to 142 °C | CC(=C1SC(=O)NC1=O)c1ccc(OCCOc2c(-c3ccc(F)c(F)c3)n(C)c3cc(Cl)ccc3c2=O)c(Cl)c1
148 to 150 °C | CCN(CC)CC1CCCCN1CCCNC(=O)N1c2ccccc2NC(=O)c2ccccc21 (centres undefined)
162 to 165 °C | COc1cccc([C@H]2O[C@H](CC(=O)Nc3cc(CCC(=O)O)ccc3OCCCc3ccccc3)C(=O)N(CC(C)(C)CO)c3ccc(Cl)cc32)c1OC
236 to 238 °C | COc1ccc2c(C)c3c(c(-c4ccc(F)cc4)c2c1)CNC3=O
198 to 200 °C | O=C1/C(=C/C=C/c2ccccc2)CCc2cc(OCCn3ccnc3)ccc21
172 to 175 °C | O=C(CSc1ccccc1)NNC(=O)N1Cc2ccccc2Oc2ccc(Cl)cc21
76 to 80 °C | Cc1c(OCC(F)(F)F)ccnc1CS(=O)c1nc2ccccc2n1S(=O)(=O)c1ccc2c(c1)OCCOCCOCCOCCO2 (centres undefined)
166 to 167 °C | CNC(=O)c1cccc(CNc2ccccc2C(=O)Nc2cccc(C(F)(F)F)c2)c1
243 to 245 °C | Cc1sc2c(Br)c3ccccc3c(C3=CC(Br)([N+](=O)[O-])C(OC(Cc4ccccc4)C(=O)O)C=C3)c2c1C (centres undefined)
118 to 122 °C | CCCCc1oc2ccccc2c1C(=O)NCc1ccc2c(-c3ccc(OC)cc3)c(O)ccc2c1
77 to 79 °C | CC(C(=O)O)c1ccc(-c2ccc(F)cc2Br)cc1 (centres undefined)
140 to 141 °C | CC(C)(C)OC(=O)C(N)C1NC(C(=O)OCc2ccccc2)C2(CCN(Cc3ccccc3)CC2)S1 (centres undefined)
113 to 117 °C | CCCCCCN(Cc1ccc(-c2ccccc2-c2nnn[nH]2)cc1)c1ncc(C(=O)O)s1
155 to 156 °C | O=C(O)COc1ccc2cc(-c3oc4ccccc4c3CCC3CCCC3)ccc2c1Br
65 to 68 °C | C#CCOc1c(CO)ccc2ccccc12
325 to 330 °C | Nc1nc2cc(C(=O)c3ccccc3)ccc2n1CCC(=O)O

Second part, the compound before the results:

SMILES | melting point
CS(=O)(=O)Nc1cccc(Nc2nc(N3CCC[C@H]3CO)c3nc[nH]c3n2)c1 | 192 to 197 °C
CCOC(=O)C1=C(CO)NC(C)=C(C(=O)OCCO)C1c1ccccc1[N+](=O)[O-] (centres undefined) | 167 to 169 °C
N#CCCNC(=O)c1cc(F)cc(-c2cccc3cc(Cc4cc(F)cc(Cl)c4)sc23)c1 | 113 to 114 °C
CN(CCCSc1ccncc1)C(=O)c1cccs1 | 72 to 72.5 °C
S=c1[nH]c(-c2ccccc2)c(-c2ccccc2)n1Nc1cccc(Cl)c1 | 178 to 180 °C
N#Cc1c(N)nc2ccc(N3CCOCC3)cc2c1Cl | 206 °C
COCCOc1cc2ncnc(NC3=CC(=O)C(Oc4ccccc4)=CC3=O)c2cc1OC | 177 to 180 °C
CCC(=O)N1C(=O)OC(C)(C)[C@@H]1C | 86 °C
NS(=O)(=O)c1ccc(S(=O)(=O)N2CCc3cccc(-c4ccncc4)c32)cc1 | 242 to 243 °C
CCOP(=O)(OCC)c1cc2cc(N)c(Cl)cc2[nH]c1=O | 255 to 260 °C
CN1CCN(c2ccc(C(=O)NC3CCCNC(=O)C3)cc2)CC1 (centres undefined) | 232 to 234 °C
Cc1csc(C2=NOCCO2)c1Br | 67 °C
Cc1cccc(C)c1NC(=O)c1ccc(Cl)nc1 | 165 to 166 °C
c1cc2c3c(c1)Cc1c(ccc4c1OCO4)C3CNC2 (centres undefined) | 175 to 176 °C
CC(=O)c1c(C)[nH]c(C)c1C | 204 to 207 °C
Cc1cc(F)ccc1C1=C(c2ccc(S(C)(=O)=O)cc2)CCC1 | 112 to 114 °C
Cc1ccc2c(c1)sc1ncc(C=O)n12 | 170 to 171 °C
CC#CCOc1ccc(OCCC(=O)O)cc1 | 88 to 92 °C
COC(=O)C(=CC=Cc1cc([N+](=O)[O-])ccc1Cl)C(=O)OC | 167 to 168 °C
Cc1c(C(=O)N[C@H](C)[C@](O)(Cn2cncn2)c2ccc(F)cc2F)cnn1-c1ccc(Br)cc1 | 153 to 154 °C

SMILES | melting point
CS(=O)(=O)O[C@@H](COC(c1ccccc1)(c1ccccc1)c1ccccc1)C[C@@H]1c2ccccc2Oc2ccc(F)cc2[C@H]1N=[N+]=[N-] | 55 to 56 °C
C=CC1C(=O)N(c2ccc(OC)cc2)C1C(=O)OCC (centres undefined) | 70 to 72 °C
COc1cc(C=CC(=O)c2ccccc2[N+](=O)[O-])cc(OC)c1 | 98.4 to 98.9 °C
CC(C)(C)C12COC(CCCCBr)(OC1)OC2 | 111 to 115 °C
O=C(Nc1cc(C(F)(F)F)cc2c(Cl)ccnc12)c1c(Cl)cccc1Cl | 150 to 157 °C
CCCNCC(O)c1ccc(S(C)(=O)=O)cc1 (centres undefined) | 120 to 123 °C
c1ccc(N2CCN(Cc3c[nH]c4ncccc34)CC2)cc1 | 207 to 209 °C
Cc1ccc(-c2cc(F)c(F)cc2-c2ccc(S(N)(=O)=O)cc2)cc1Cl | 139 to 140 °C
Fc1cc2c(cc1F)CC(n1c(-c3nnn[nH]3)c[nH]c1=S)C2 | 142 to 147 °C
CN1CCN(c2c(F)cc3c(=O)c(C(=O)O)cn(C4CC4)c3c2C#N)CC1 | 264 to 265 °C
COc1cc(C=O)cc(OC)c1F | 97 to 98 °C
CC(=O)N(C#N)c1ccc(Cc2ccc(N(C#N)C(C)=O)cc2)cc1 | 134 to 136 °C
N#CSc1ccc(SCc2ncon2)cc1 | 78 °C
CC(C)(C)c1cccc(C(C)(C)C)c1OS(C)(=O)=O | 83 °C
CS(=O)(=O)c1ccccc1C(N)=O | 149 °C
O=C(O)Cc1nn(Cc2nc3cc(C(F)(F)F)ccc3s2)c(=O)c2nccnc12 | 192 to 193 °C
C#C[C@H](Cc1cccc(F)c1)n1nnc2cc3c(cc2c1=O)OCN(C1CC1)C3=O | 168 to 180 °C
COc1cccc(Oc2ncccc2C=O)c1 | 76 to 78 °C
CCCCCCc1cc2c(s1)-n1c(C)nnc1CN=C2c1ccc(OC)cc1 | 97 to 99 °C
CCOC(=O)c1ncn2c1CN(C)C(=O)c1cnccc1-2 | 205 to 206 °C

SMILES | melting point
O=C1Nc2ccc(F)c(F)c2C(C#Cc2ccccn2)(C(F)(F)F)N1 (racemic) | 219 to 220 °C
CS(=O)(=O)OCC1OC2CC(CC(OS(C)(=O)=O)C2)O1 (centres undefined) | 137 to 138 °C
CC(C)(C)CCNC(=O)CN1C(=O)C2(COc3cc4c(cc32)CCO4)c2ccccc21 (centres undefined) | 161 to 163 °C
COc1cccc2c(=O)c(SC)coc12 | 113 to 115 °C
COc1ccc2c(c1)CCC1C2CCC2(C)C=CCC12 (centres undefined) | 164 to 168 °C
ON=CC1=NCCCS1 | 114 to 115 °C
O=C(NCCC12CC3CC(CC(C3)C1)C2)c1ccccc1Cl | 125 to 127 °C
Fc1ccc2nc(S)oc2c1 | 248 to 250 °C
COC(=O)CNC(=O)C(CS)NC(=O)CNC(=O)CS (centres undefined) | 149 to 151 °C
CCCCOc1cc(C2(C)CNC(=O)O2)ccc1OC (centres undefined) | 108 to 109 °C
COc1ccsc1NC(=O)Nc1cc([N+](=O)[O-])ccc1O | 173 °C
O=S1(=O)CCN(Cc2ccc(Br)cn2)CC1 | 129 to 131 °C
CC(C)=Cc1ccc(-c2c(C(C)C)ccc(CO)c2C(C)C)nc1 | 93 to 95 °C
C=C(C)OC(=O)N1c2cnccc2NC(=O)C1C (racemic) | 236 °C
CC(=O)C(=O)N[C@H](CO[N+](=O)[O-])Cc1ccccc1 | 72 to 75 °C
NS(=O)(=O)c1cccnc1N1CCSCC1 | 176 to 177 °C
CC1Cc2cc(-n3ccnc3)ccc2C1=O (centres undefined) | 103 to 106 °C
Cc1cc2nc(C(C)C)c(CO)c(-c3ccc(F)cc3)n2n1 | 188 °C
Cc1cc(-n2nc(C(F)(F)F)cc2-c2ccc(-c3cscn3)cc2)ccc1S(C)(=O)=O | 147 to 149 °C
N#Cc1nn(-c2c(Cl)cc(C(F)(F)F)cc2Cl)cc1C(=O)C(F)(F)F | 124 to 125 °C
